# Where two headings read alike, the source gives them in different places.
# How the values were obtained:
# [1] = biological target: KRAS protein containing G12D mutation (Homo sapiens (Human), UniProt P01116, G12D); assay: SOS-catalyzed nucleotide exchange assay (GNE), TR-FRET; assay type: biochemical; details: biotinylated KRAS G12D, SOS and GTP, 60-minute incubation
# Method: Compounds are added to this complex and then after a 60-minute incubation time the mixture is treated with SOS and unlabeled GTP. Small molecule inhibitors stabilize the Bodipy-GDP complex whereas the untreated protein rapidly exchanges Bodipy-GDP for unlabeled GTP resulting in reduced TR-FRET signal.
# This solution is referred to as biotinylated KRAS G12D stock solution.
# [2] = system: AsPC-1 cells containing homozygous KRAS-G12D activating mutation; assay: Cellular phospho-ERK assay (Examples 1a-106); assay type: cell-based; details: AsPC-1 cells, 2 hours, ratio of p-Erk vs total Erk, read-out: IC50 (nM) pERK (Cell)
# Description: 5% CO? overnight. […] Assay plates were read on a EnVision Multimode Plate Reader (PerkinElmer) and the ratio of p-Erk vs total Erk in each well was used as the final readout.
# Chain of KRAS protein containing G12D mutation (P01116 other isoform, or with tags, fused parts or gaps G12D (already in the parent)): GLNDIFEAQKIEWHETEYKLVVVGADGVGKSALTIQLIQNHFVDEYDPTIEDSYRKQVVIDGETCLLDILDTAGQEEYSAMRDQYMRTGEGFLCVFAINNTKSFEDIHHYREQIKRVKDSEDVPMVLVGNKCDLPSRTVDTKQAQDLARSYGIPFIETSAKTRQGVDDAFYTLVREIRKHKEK
Compound,IC50 [1] [nM],"IC50 ([2]; Homo sapiens, ASPC1, 2 h) [nM]",IC50 [2] [nM]
"C=C[C@H]1[C@@H]2CC[C@@H](CN2)N1c1nc(OCC2(CN(C)C)CC2)nc2c(F)c(-c3cc(O)cc4ccccc34)c(F)cc12 [Ex. 6a, 4-(2-((1-((dimethylamino)methyl)cyclopropyl)methoxy)-6,8-difluoro-4-((1S,3S,4S)-3-vinyl-2,5-diazabicyclo[2.2.2]octan-2-yl)quinazolin-7-yl)naphthalen-2-ol]",159,13300,
"Cc1cc2[nH]ncc2c(C2Cc3nc(OCC4(CN5CC[C@@H](F)C5)CC4)nc(N4C[C@H]5CC[C@@](C)(C4)N5)c3CO2)c1C(F)(F)F (stereo partly drawn) [Ex. 97, 2-((1-(((R)-3-fluoropyrrolidin-1-yl)methyl)cyclopropyl)methoxy)-7-(6-methyl-5-(trifluoromethyl)-1H-indazol-4-yl)-4-((1S,5R)-1-methyl-3,8-diazabicyclo[3.2.1]octan-3-yl)-7,8-dihydro-5H-pyrano[4,3-d]pyrimidine]",3950,24300,
"Cc1cc2[nH]ncc2c(C2Cc3nc(OCC4(CN5CC[C@@H](F)C5)CC4)nc(N4C[C@H]5CC[C@@](C)(C4)N5)c3C(=O)N2)c1C(F)(F)F (stereo partly drawn) [Ex. 98b, 2-((1-(((R)-3-fluoropyrrolidin-1-yl)methyl)cyclopropyl)methoxy)-7-(6-methyl-5-(trifluoromethyl)-1H-indazol-4-yl)-4-((1S,5R)-1-methyl-3,8-diazabicyclo[3.2.1]octan-3-yl)-7,8-dihydropyrido[4,3-d]pyrimidin-5(6H)-one]",11100,50800,
"C=C[C@@H]1[C@@H]2CC[C@@H](CN2)N1c1nc(OCC2(CN(C)C)CC2)nc2c(F)c(-c3cc(O)cc4ccccc34)c(F)cc12 [Example 6b, 4-(2-((1-((dimethylamino)methyl)cyclopropyl)methoxy)-6,8-difluoro-4-((1S,3R,4S)-3-vinyl-2,5-diazabicyclo[2.2.2]octan-2-yl)quinazolin-7-yl)naphthalen-2-ol]",426,5500,
"CC[C@H]1[C@@H]2CC[C@@H](CN2)N1c1nc(OCC2(CN(C)C)CC2)nc2c(F)c(-c3cc(O)cc4ccccc34)c(F)cc12 [Example 9, 4-(2-((1-((dimethylamino)methyl)cyclopropyl)methoxy)-4-((1S,3S,4S)-3-ethyl-2,5-diazabicyclo[2.2.2]octan-2-yl)-6,8-difluoroquinazolin-7-yl)naphthalen-2-ol]",1330,13600,
"CC[C@@H]1[C@@H]2CC[C@@H](CN2)N1c1nc(OCC2(CN(C)C)CC2)nc2c(F)c(-c3cc(O)cc4ccccc34)c(F)cc12 [Example 10, 4-(2-((1-((dimethylamino)methyl)cyclopropyl)methoxy)-4-((1S,3R,4S)-3-ethyl-2,5-diazabicyclo[2,2,2]octan-2-yl)-6,8-difluoroquinazolin-7-yl)naphthalen-2-ol]",2750,9830,
"O=C(O)C1CC1COc1nc(N2CC3CCC(C2)N3)c2cc(F)c(-c3cc(O)cc4ccccc34)c(F)c2n1 (centres unmarked) [Example 13, 2-(((4-(3.8-diazabicyclo[3.2.1]octan-3-yl)-6,8-difluoro-7-(3-hydroxynaphthalen-1-yl)quinazolin-2-yl)oxy)methyl)cyclopropane-1-carboxylc acid]",5880,,50800
"Oc1cc(-c2c(F)cc3c(N4CC5CCC(C4)N5)nc(N4CC5(CCCN5)C4)nc3c2F)c2ccccc2c1 [Example 14, 4-(4-(3.8-diazabicyclo[3.2.1]octan-3-yl)-6,8-difluoro-2-(2,5-diazaspiro[3.4]octan-2-yl)quinazolin-7-yl)naphthalen-2-ol]",1570,24000,
"NC(=O)C1(COc2nc(N3CC4CCC(C3)N4)c3cc(F)c(-c4cc(O)cc5ccccc45)c(F)c3n2)CNC1 [Example 15, 3-(((4-(3.8-diazabicyclo[3.2.1]octan-3-yl)-6,8-difluoro-7-(3-hydroxynaphthalen-1-yl)quinazolin-2-yl)oxy)methyl)azetidine-3-carboxamide]",2140,50800,
"CN(C)CC1(COc2nc(N3CC4CC(C)(O)C(C3)N4)c3cc(F)c(-c4cc(O)cc5ccccc45)c(F)c3n2)CC1 (centres unmarked) [Example 27, 3-(2-((1-((dimethylamino)meth-yl)cyclopro-pyl)methoxy)-6,8-difluoro-7-(3-hydroxynaphthalen-1-yl)quinazolin-4-yl)-6-methyl-3,8-diazabicyclo [3.2.1]octan-6-ol]",496,22500,
"CN(C)CC1(COc2nc(N3CC4CC(C#N)C(C3)N4)c3cc(F)c(-c4cc(O)cc5ccccc45)c(F)c3n2)CC1 (centres unmarked) [Example 28, 3-(2-((1-((dimethylamino)meth-yl)cyclopro-pyl)methoxy)-6,8-difluoro-7-(3-hydroxynaphthalen-1-yl)quinazolin-4-yl)-3,8-diazabicyclo[3.2.1]oc-tane-6-carbontrile]",7450,50800,
"CC1CC2CN(c3nc(OCC4(CN(C)C)CC4)nc4c(F)c(-c5cc(O)cc6ccccc56)c(F)cc34)CC1N2 (centres unmarked) [Example 29, 4-(2-((1-((dimethyl-amino)methyl)cyclopro-pyl)methoxy)-6,8-difluoro-4-(6-methyl-3,8-diazabicyclo[3.2.1]oc-tan-3-yl)quinazolin-7-yl)naphthalen-2-ol]",705,11600,
"CN(C)CC1(COc2nc(N3CC4NC(C3)C3CC43)c3cc(Cl)c(-c4cc(O)cc5ccccc45)c(F)c3n2)CC1 (centres unmarked) [Example 30, 4-(6-chloro-2-((1-((dimethylamino)meth-yl)cyclopropyl)meth-oxy)-8-fluoro-4-(7,9-diazatri-cyclo[3.3.1.02,4]nonan-7-yl)quinazolin-7-yl)naphthalen-2-ol]",7610,30100,
"COCC12CCC(CN(c3nc(OCC4(CN(C)C)CC4)nc4c(F)c(-c5cc(O)cc6ccccc56)c(Cl)cc34)C1)N2 (centres unmarked) [Example 37, 4-(6-chloro-2-((1-((dimethylamino)meth-yl)cyclopro-pyl)methoxy)-8-fluoro-4-(1-(methoxy-methyl)-3,8-diazabicyclo[3.2.1]oc-tan-3-yl)quinazolin-7-yl)naphthalen-2-ol]",571,16700,
"CC[C@@H]1N[C@H]2CC[C@@H]1N(c1nc(OCC3(CN(C)C)CC3)nc3c(F)c(-c4cc(O)cc5ccccc45)c(Cl)cc13)C2 [Example 40, 4-(6-chloro-2-((1-((dimethylamino)methyl)cyclopropyl)methoxy)-4-((1S,4S,6S)-6-ethyl-2,5-diazabicyclo[2.2.2]octan-2-yl)-8-fluoroquinazolin-7-yl)naphthalen-2-ol]",689,22000,
"CN(C)CC1(COc2nc(N3C[C@H]4N[C@@](C)(C[C@@H]4O)C3)c3cc(Cl)c(-c4cc(O)cc5ccccc45)c(F)c3n2)CC1 [Example 44, (1S,5R,6S)-3-(6-chloro-2-((1-((dimethylamino)methyl)cyclopropyl)methoxy)-8-fluoro-7-(3-hydroxynaphthalen-1-yl)quinazolin-4-yl)-1-methyl-3,8-diazabicyclo [3.2.1]octan-6-ol]",1160,13900,
"CN(C)CC1(COc2nc(N3CC4CCC(C3)N4)c3cc(Cl)c(-c4c5ccccc5cc5[nH]c(=O)[nH]c45)c(F)c3n2)CC1 [Example 46, 4-(4-(3,8-diazabicyclo[3.2.1]octan-3-yl)-6-chloro-2-((1-((dimethylamino)methyl)cyclopropyl)methoxy)-8-fluoroquinazolin-7-yl)-1,3-dihydro-2H-naphtho[2,3-d]imidazol-2-one]",9340,50800,
"CN(C)CC1(COc2nc(N3CC4CCC(C3)N4)c3cc(Cl)c(-c4cc(O)ccc4C45CC(C4)C5)c(F)c3n2)CC1 [Example 47, 3-(4-(3,8-diazabicyclo[3.2.1]octan-3-yl)-6-chloro-2-((1-((dimethylamino)methyl)cyclopropyl)methoxy)-8-fluoroquinazolin-7-yl)-4-(bicyclo[1.1.1]pentan-1-yl)phenol]",551,5790,
"Oc1ccc(SC(F)(F)F)c(-c2c(F)cc3c(N4CC5CCC(C4)N5)nc(OCC4(CN5CCOCC5)CC4)nc3c2F)c1 [Example 48, 3-(4-(3,8-diazabicyclo[3.2.1]octan-3-yl)-6,8-difluoro-2-((1-(morpholinomethyl)cyclopropyl)methoxy)quinazolin-7-yl)-4-((trifluoromethyl)thio)phenol]",529,6120,
"Fc1cc2c(N3CC4CCC(C3)N4)nc(OCC3(CN4CCOCC4)CC3)nc2c(F)c1-c1cccc2sncc12 [Example 50, 4-((1-(((7-(benzo[d]isothiazol-4-yl)-4-(3,8-diazabicyclo[3.2.1]octan-3-yl)-6,8-difluoroquinazolin-2-yl)oxy)methyl)cyclopropyl)methyl) morpholine]",5180,20300,
"CNc1nc2c(-c3c(Cl)cc4c(N5CC6CCC(C5)N6)nc(OCC5(CN6CCOCC6)CC5)nc4c3F)ccc(F)c2s1 [Example 51, 4-(4-(3,8-diazabicyclo[3.2.1]octan-3-yl)-6-chloro-8-fluoro-2-((1-(morpholinomethyl)cyclopropyl)methoxy)quinazolin-7-yl)-7-fluoro-N-methylbenzo[d]thiazol-2-amine]",3930,11200,
"Fc1c(-c2ccc(F)c3scnc23)c(Cl)cc2c(N3CC4CCC(C3)N4)nc(OCC3(CN4CCOCC4)CC3)nc12 [Example 53, 4-((1-(((4-(3,8-diazabicyclo[3.2.1]octan-3-yl)-6-chloro-8-fluoro-7-(7-fluorobenzo[d]thiazol-4-yl)quinazolin-2-yl)oxy)methyl)cyclopropyl)methyl) morpholine]",2780,11000,

# From patent US20240239788A1, “SMALL MOLECULE INHIBITORS OF KRAS G12D MUTANT” (Merck Sharp & Dohme LLC, priority 2021, published 2024)
